Assay results from patent US9408850B2, “Substituted indazole derivatives active as kinase inhibitors” (NERVIANO MEDICAL SCIENCES S.R.L., priority 2011, dated 2016).
Counter-ions that a name gives are not always drawn.

Legend:
[1] = target: KIT cytoplasmic domain (GST fused protein) (Homo sapiens (Human), UniProt P10721); test: Biochemical assay for inhibitors of KIT kinase activity; conditions: 4 nM pre activated enzyme, 4.4 microM ATP, 60 minutes at r.t.
Procedure: KIT cytoplasmic domain (aa 544-976end of the 976 aminoacid long full length sequence, accession number P10721 of UniProtKB/Swiss-Prot database) was cloned into pVL vector for expression in insect cells through the baculovirus system. The GST-KIT cytoplasmic domain has been expressed in Sf21 cells infected for 66 hrs at 27° C. The recombinant protein has been purified by affinity on GSH-sepharose and eluted with glutathione. […] General Principle-A specific peptidic substrate was trans-phosphorylated by the kinase in the presence of ATP traced with 33Pγ-ATP. At the end of the phosphorylation reaction, the not reacted ATP, cold and radioactive, was captured by an excess of dowex ion exchange resin that eventually settled by gravity to the bottom of the reaction plate. The supernatant was subsequently withdrawn and transferred into a counting plate that was then evaluated by β-counting. • ii. Dowex resin preparation-500 g of wet resin (SIGMA, custom prepared resin DOWEX 1×8 200-400 mesh, 2.5 Kg) were weighed out and diluted to 2 L in 150 mM sodium formate, pH 3.00. The resin was allowed to settle down overnight and then the supernatant was discarded. After three washes as above over a couple of days, the resin was allowed to settle and two volumes (with respect to the resin volume) were added of 150 mM sodium formate buffer. Biochemical Assay for Inhibitors of FLT3 Kinase Activity • i. Enzyme-The assay was performed using FLT3 cytoplasmic domain product and purified in house as GST fused protein. […] The peptide was purchased from American Peptide Company (Sunnyvale, Calif.). Biochemical Assay for Inhibitors of KIT Kinase Activity • i. Enzyme-The assay has been performed using KIT cytoplasmic domain product and purified in house as GST fused protein. […] NO: 2). The peptide was purchased from American Peptide Company (Sunnyvale, Calif.). Compound Testing • i. […] An automated station for serial dilutions (Biomek FX, Beckman) was used for producing 1:3 dilutions in 100% DMSO, from line A1 to A10, and for all the compounds in the column. […] The following dispensation into the plates plus 3 cycles of mixing, done by the robot itself, started the kinase reaction. At this point, the correct concentrations were restored for all the reagents. The robot incubated the plates for 60 minutes at r.t., and then stopped the reaction by pipetting 60 microL of dowex resin suspension into the reaction mix. In order to avoid tip clogging, wide bore tips were used to dispense the resin suspension. Three cycles of mixing were done immediately after the addition of the resin. Another mixing cycle was performed after all the plates were stopped, this time using normal tips: the plates were then allowed to rest for about one hour in order to allow resin sedimentation. […] Data Fitting-Data were analyzed by an internally customized version of the SW package “Assay Explorer” that provided sigmoidal fitting of the ten-dilutions curves for IC50 determination in the secondary assays/hit confirmation routines. Cell-Based Assays for Inhibitors of FLT3 Kinase Activity In vitro Cell Proliferation Assay for Inhibitors of FLT3 Kinase Activity

[2] = target: FLT3 cytoplasmic domain (GST fused protein) (Homo sapiens (Human), UniProt P36888); test: Biochemical assay for inhibitors of FLT3 kinase activity; conditions: 2 nM pre activated enzyme, 254 microM ATP, 60 minutes at r.t.
Procedure: FLT3 cytoplasmic domain (aa 564-993end of the 993 aminoacid long full length sequence, accession number P36888 of UniProtKB/Swiss-Prot. database) was amplified by PCR starting from a testis cDNA library and then cloned into pVL vector for expression in insect cells through the baculovirus system. The GST-FLT3 cytoplasmic domain has been expressed in Sf21 cells infected for 72 hours at 27° C. The recombinant protein has been purified by affinity on GSH-sepharose and eluted with glutathione. A further purification step has been performed on heparine sepharose. […] General Principle-A specific peptidic substrate was trans-phosphorylated by the kinase in the presence of ATP traced with 33Pγ-ATP. At the end of the phosphorylation reaction, the not reacted ATP, cold and radioactive, was captured by an excess of dowex ion exchange resin that eventually settled by gravity to the bottom of the reaction plate. The supernatant was subsequently withdrawn and transferred into a counting plate that was then evaluated by β-counting. • ii. Dowex resin preparation-500 g of wet resin (SIGMA, custom prepared resin DOWEX 1×8 200-400 mesh, 2.5 Kg) were weighed out and diluted to 2 L in 150 mM sodium formate, pH 3.00. The resin was allowed to settle down overnight and then the supernatant was discarded. After three washes as above over a couple of days, the resin was allowed to settle and two volumes (with respect to the resin volume) were added of 150 mM sodium formate buffer. Biochemical Assay for Inhibitors of FLT3 Kinase Activity • i. Enzyme-The assay was performed using FLT3 cytoplasmic domain product and purified in house as GST fused protein. […] NO: 1). The peptide was purchased from American Peptide Company (Sunnyvale, Calif.). Biochemical Assay for Inhibitors of KIT Kinase Activity • i. Enzyme-The assay has been performed using KIT cytoplasmic domain product and purified in house as GST fused protein. […] NO: 2). The peptide was purchased from American Peptide Company (Sunnyvale, Calif.). Compound Testing • i. […] An automated station for serial dilutions (Biomek FX, Beckman) was used for producing 1:3 dilutions in 100% DMSO, from line A1 to A10, and for all the compounds in the column. […] The following dispensation into the plates plus 3 cycles of mixing, done by the robot itself, started the kinase reaction. At this point, the correct concentrations were restored for all the reagents. The robot incubated the plates for 60 minutes at r.t., and then stopped the reaction by pipetting 60 microL of dowex resin suspension into the reaction mix. In order to avoid tip clogging, wide bore tips were used to dispense the resin suspension. Three cycles of mixing were done immediately after the addition of the resin. Another mixing cycle was performed after all the plates were stopped, this time using normal tips: the plates were then allowed to rest for about one hour in order to allow resin sedimentation. […] Data Fitting-Data were analyzed by an internally customized version of the SW package “Assay Explorer” that provided sigmoidal fitting of the ten-dilutions curves for IC50 determination in the secondary assays/hit confirmation routines. Cell-Based Assays for Inhibitors of FLT3 Kinase Activity In vitro Cell Proliferation Assay for Inhibitors of FLT3 Kinase Activity

Chain of KIT cytoplasmic domain (GST fused protein) (P10721 544-976): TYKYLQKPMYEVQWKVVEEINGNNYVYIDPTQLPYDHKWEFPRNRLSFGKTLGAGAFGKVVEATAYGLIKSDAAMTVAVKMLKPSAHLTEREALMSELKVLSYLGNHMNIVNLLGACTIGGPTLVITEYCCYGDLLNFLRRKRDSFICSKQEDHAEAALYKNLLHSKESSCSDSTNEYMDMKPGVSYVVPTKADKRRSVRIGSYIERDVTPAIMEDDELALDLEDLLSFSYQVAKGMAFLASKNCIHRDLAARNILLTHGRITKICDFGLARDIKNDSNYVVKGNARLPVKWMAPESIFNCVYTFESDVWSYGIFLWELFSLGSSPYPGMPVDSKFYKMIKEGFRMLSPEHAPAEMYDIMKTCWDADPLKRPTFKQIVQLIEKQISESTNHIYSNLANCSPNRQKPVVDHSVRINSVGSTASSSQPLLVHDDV
Chain of FLT3 cytoplasmic domain (GST fused protein) (P36888 564-993): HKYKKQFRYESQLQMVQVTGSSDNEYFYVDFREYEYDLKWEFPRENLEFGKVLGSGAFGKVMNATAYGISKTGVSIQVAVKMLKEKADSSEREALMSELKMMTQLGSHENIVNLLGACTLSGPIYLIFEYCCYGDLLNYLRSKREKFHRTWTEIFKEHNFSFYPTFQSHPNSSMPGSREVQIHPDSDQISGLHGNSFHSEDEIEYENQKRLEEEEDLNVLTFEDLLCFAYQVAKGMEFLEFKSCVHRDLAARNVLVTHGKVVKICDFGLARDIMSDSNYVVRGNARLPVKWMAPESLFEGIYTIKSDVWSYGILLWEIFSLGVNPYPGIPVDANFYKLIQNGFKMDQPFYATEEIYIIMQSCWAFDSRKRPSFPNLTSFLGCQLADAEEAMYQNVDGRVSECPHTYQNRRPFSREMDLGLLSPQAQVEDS

IC50 [1] [nM] | IC50 [2] [nM] | Structure (SMILES)
613 | 539 | CN1CCN(c2ccc(C(=O)Nc3n[nH]c4cc(OCCOCc5ccccc5)ccc34)c(F)c2)CC1 [Cpd. 38, N-[6-(2-Benzyloxy-ethoxy)-1H-indazol-3-yl]-2-fluoro-4-(4-methyl-piperazin-1-yl)-benzamide]
55 | 56 | CN1CCC(Oc2ccc(C(=O)Nc3n[nH]c4cc(OCCOCc5ccccc5)ccc34)cc2)CC1 [Cpd. 22, N-[6-(2-Benzyloxy-ethoxy)-1H-indazol-3-yl]-4-(1-methyl-piperidin-4-yloxy)-benzamide]
197 | 74 | O=C(Nc1n[nH]c2cc(OCCOCc3ccccc3)ccc12)c1ccc(NCCN2CCOCC2)cc1 [Cpd. 25, N-[6-(2-Benzyloxy-ethoxy)-1H-indazol-3-yl]-4-(2-morpholin-4-yl-ethylamino)-benzamide hydrochloride]
91 | < 50 | CN1CCC(CNc2ccc(C(=O)Nc3n[nH]c4cc(OCCOCc5ccccc5)ccc34)cc2)CC1 [Cpd. 27, N-[6-(2-Benzyloxy-ethoxy)-1H-indazol-3-yl]-4-[(1-methyl-piperidin-4-ylmethyl)-amino]-benzamide]
528 | 62 | CN1CCN(c2ccc(C(=O)Nc3n[nH]c4cc(OC/C=C/c5ccccc5)ccc34)cc2)CC1 [Cpd. 39, 4-(4-Methyl-piperazin-1-yl)-N-[6-((E)-3-phenyl-allyloxy)-1H-indazol-3-yl]-benzamide]
564 | 639 | CN1CCN(c2ccc(C(=O)Nc3n[nH]c4cc(Oc5cccc(F)c5)ccc34)cc2)CC1 [Cpd. 3, N-[6-(3-Fluoro-phenoxy)-1H-indazol-3-yl]-4-(4-methyl-piperazin-1-yl)-benzamide]
118 | < 50 | C[N+]1([O-])CCN(c2ccc(C(=O)Nc3n[nH]c4cc(OCCOCc5ccccc5)ccc34)cc2)CC1 [Cpd. 14, N-[6-(2-Benzyloxy-ethoxy)-1H-indazol-3-yl]-4-(4-methyl-4-oxy-piperazin-1-yl)-benzamide]
88 | < 50 | COc1ccc(COCCOc2ccc3c(NC(=O)c4ccc(N5CCN(C)CC5)cc4)n[nH]c3c2)cc1 [Cpd. 40, N-{6-[2-(4-Methoxy-benzyloxy)-ethoxy]-1H-indazol-3-yl}-4-(4-methyl-piperazin-1-yl)-benzamide]
1500 | 249 | CN1CCN(c2ccc(C(=O)Nc3n[nH]c4cc(OCC#Cc5ccccc5)ccc34)cc2)CC1 [Cpd. 7, 4-(4-Methyl-piperazin-1-yl)-N-[6-(3-phenyl-prop-2-ynyloxy)-1H-indazol-3-yl]-benzamide]
58 | 56 | CN1CCN(c2ccc(C(=O)Nc3n[nH]c4cc(OCCOCc5cccc(C(F)(F)F)c5)ccc34)cc2)CC1 [Cpd. 34, 4-(4-Methyl-piperazin-1-yl)-N-{6-[2-(3-trifluoromethyl-benzyloxy)-ethoxy]-1H-indazol-3-yl}-benzamide]
61 | < 50 | CN1CCC(Nc2ccc(C(=O)Nc3n[nH]c4cc(OCCOCc5ccccc5)ccc34)cc2)CC1 [Cpd. 19, N-[6-(2-Benzyloxy-ethoxy)-1H-indazol-3-yl]-4-(1-methyl-piperidin-4-ylamino)-benzamide]
113 | < 50 | CN1CCN(c2ccc(C(=O)Nc3n[nH]c4cc(OCCOCc5ccccc5)ccc34)cc2)CC1 [Cpd. 11, N-[6-(2-Benzyloxy-ethoxy)-1H-indazol-3-yl]-4-(4-methyl-piperazin-1-yl)-benzamide]
< 50 | < 50 | CN1CCN(c2ccc(C(=O)Nc3n[nH]c4cc(OCCOCc5ccc(F)cc5)ccc34)cc2)CC1 [Cpd. 32, N-{6-[2-(4-Fluoro-benzyloxy)-ethoxy]-1H-indazol-3-yl}-4-(4-methyl-piperazin-1-yl)-benzamide]
306 | 136 | O=C(Nc1n[nH]c2cc(OCCOCc3ccccc3)ccc12)c1ccc(N2CC(N3CCCC3)C2)cc1 [Cpd. 28, N-[6-(2-Benzyloxy-ethoxy)-1H-indazol-3-yl]-4-(3-pyrrolidin-1-yl-azetidin-1-yl)-benzamide]
